The record followed here is patent US20070092551A1, “Therapeutic agent” (TAKARA BIO INC., priority 2003, published 2007).

Where two headings read alike, the source gives them in different places.

For assay [1], the target named is T1, fusion protein of an yeast GAL4 DNA-binding domain and a human PPARγ ligand-binding site (Homo sapiens, UniProt P37231).
T1 construct: expressed in transfected cells; host or cells: CV-1 cells
T1 sequence (P37231 204-505): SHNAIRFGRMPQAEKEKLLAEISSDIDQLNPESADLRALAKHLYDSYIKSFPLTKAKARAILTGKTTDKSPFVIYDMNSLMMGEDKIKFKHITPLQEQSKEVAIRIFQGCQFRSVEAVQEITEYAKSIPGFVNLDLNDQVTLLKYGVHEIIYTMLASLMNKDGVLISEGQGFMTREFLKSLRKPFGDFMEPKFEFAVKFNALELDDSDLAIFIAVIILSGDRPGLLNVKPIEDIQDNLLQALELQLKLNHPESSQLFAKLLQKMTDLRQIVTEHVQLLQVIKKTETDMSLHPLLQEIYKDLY
As to the kind of experiment: PPARγ activation reporter assay in CV-1 cells. It counts as cell-based. The conditions noted are these: test compound 10 μM, pFA-CMV (PPARγ), 24 hours. The protocol:
The activation ability for PPARγ was determined by a reporter assay using a fusion protein of an yeast GAL4 DNA-binding domain and a human PPARγ ligand-binding site.
A plasmid (pGAL4/GL3-Promoter) was prepared by repeating five times insertion of a binding site (UASg) of GAL4 into a multicloning site of a pGL3-Promoter vector (Promega). In addition, a ligand-binding site (amino acid sequence 204 to 505) of the PPARγ gene was cloned from a human liver cDNA library (manufactured by TAKARA BIO INC.) by a polymerase chain reaction, and the ligand-binding site was inserted into a multicloning site of a pFA-CMV plasmid vector ([…]) to give pFA-CMV (PPARγ).
Escherichia coli JM-109 strain was transformed with each of the two kinds of the plasmids obtained by the above-mentioned procedures, and pFA-CMV and pRL-TK (Promega) according to a conventional method. Each of the Escherichia coli cells was cultured with shaking at 37° C. for 18 hours in an LB medium containing 100 μg/mL ampicillin. Thereafter, the plasmids of each were purified according to the procedure manual of QIAfilter Plasmid midi Kit (QIAGEN).
CV-1 cells were seeded in a 24-well plate so as to have a density of 4×10^4 cells per well. Thereafter, the cells were cultured in a Dulbecco's modified Eagle's medium (manufactured by Sigma, D5796) containing 10% fetal bovine serine (manufactured by Bio Whittaker) for 24 hours under the conditions of 37° C. and 5% CO2. Thereafter, in accordance with the procedure manual of LipofectAmine 2000 (Invitrogen), the gene transfer was carried out into the CV-1 cells with 200 ng of pFA-CMV (PPARγ) or pFA-CMV, 400 ng of pGAL4/GL3-promoter, and 200 ng of pRL-TK per well, and thereafter the cells were cultured for 24 hours under the conditions of 37° C. and 5% CO2. Thereafter, the medium was exchanged with a Dulbecco's modified Eagle's medium to which a test compound dissolved in dimethyl sulfoxide was previously added so as to have a final concentration of 10 μM. Thereafter, the cells were cultured for additional 24 hours. In addition, there were set a group with addition of dimethyl sulfoxide in place of a test compound as a negative control, and a group with addition of troglytazone (manufactured by Calbiochem) so as to have a final concentration of 3 μM as a positive control. The cells were washed with a phosphate buffered saline, and 5× PassiveLysisBuffer (Promega) which was previously diluted in 5-folds with distilled water was added thereto in an amount of 100 μL per well. The mixture was shaken at room temperature for 15 minutes to lyse cells. Twenty microliters of this lysed solution was applied in accordance with the procedure manual of Dual Luciferase Assay System (Promega), and a fluorescent luciferase emission intensity and a Renilla mullerei luciferase emission intensity were measured using Mithras-LB940 (BERTHOLD TECHNOLOGIES GmbH). The enhancing action for transcriptional activation of each test compound was shown as a relative value obtained by calculating a ratio of the fluorescent luciferase emission intensity to the Renilla mullerei luciferase emission intensity, wherein the value of the group with addition of the negative control is defined as 1.

The subject of the next assay is 3T3-L1 cells. The experiment in a line: Induction of adipocyte differentiation (amount of triglyceride biosynthesis). It counts as cell-based. The note with it: Mus musculus. Put shortly:
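3T3-L1 cells were grown 7 days in DMEM/10% FBS/200 μM ascorbic acid, then given test compound with 0.25 μM dexamethasone for 45 h, then compound alone for 7 days, re-dosed at medium changes. Hexane:isopropanol-extracted triglyceride was measured in duplicate; X=(S−N)/(P−N) versus DMSO (N) and insulin (P), ranked +++ to +/−.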

The mark [2] stands for this setting: 3T3-L1, X=(S−N)/(P−N) of amount of triglyceride, P=insulin positive control, read-out: Action for Induction of Differentiation.
[3] abbreviates: 3T3-L1, 3 μM, X=(S−N)/(P−N) of amount of triglyceride, P=insulin positive control, read-out: Action for Induction of Differentiation.
Setting [4] is: 3T3-L1, 10 μM, X=(S−N)/(P−N) of amount of triglyceride, P=insulin positive control, read-out: Action for Induction of Differentiation.
The mark [5] stands for this setting: 3T3-L1, read-out: Action for Induction of Differentiation.

On to `COc1ccc(C(=O)/C=C/c2ccc(O)cc2)c(O)c1C/C=C(\C)CCC=C(C)C` [Xanthoangelol F, 4,2′-Dihydroxy-3′-geranyl-4′-methoxychalcone], for which the “enhancing action for transcriptional activation (PPARγ)” value (“enhancing action” below) in assay [1] is listed as “no enhancing action for transcriptional activation was found”. Further, the activation at 1 µM in the assay with 3T3-L1 cells (setting [2]) was in the range of 60 to 100%. Further, the activation at 3 µM with 3T3-L1 cells (setting [3]) was over 100%. For the same compound, the activation at 10 µM in the assay with 3T3-L1 cells (setting [4]) is over 100%.

Consider `COc1ccc(C(=O)/C=C/c2ccc(O)cc2)c(O)c1CC=C(C)C` [4-Hydroxyderricin, 4,2′-Dihydroxy-3′-prenyl-4′-methoxychalcone], for which the “enhancing action” value in assay [1] is “no enhancing action for transcriptional activation was found”. In addition, in the assay on 3T3-L1 cells (setting [5]), the activation at 3 µM was in the range of 60 to 100% and the activation at 10 µM was over 100%.

Take `COc1ccc(C(=O)/C=C/c2ccc(O)cc2)c2c1CC(O)C(C)(C)O2` (stereo not drawn) [Xanthoangelol H]: the “enhancing action” value in assay [1] was “no enhancing action for transcriptional activation was found”. Further, the activation at 1.3 µM with 3T3-L1 cells (3T3-L1, 1.3 μM, X=(S−N)/(P−N) of amount of triglyceride, P=insulin positive control, read-out: Action for Induction of Differentiation) was in the range of 30 to 60%. For the same compound, the activation at 4 µM in the assay with 3T3-L1 cells (3T3-L1, 4 μM, X=(S−N)/(P−N) of amount of triglyceride, P=insulin positive control, read-out: Action for Induction of Differentiation) was 60 to 100%. In addition, the activation at 13 µM in the assay on 3T3-L1 cells (3T3-L1, 13 μM, X=(S−N)/(P−N) of amount of triglyceride, P=insulin positive control, read-out: Action for Induction of Differentiation) is over 100%.

Consider `CC(C)=CCC/C(C)=C/Cc1c(O)ccc(C(=O)/C=C/c2ccc(O)cc2)c1O` [Xanthoangelol, 4,2′,4′-Trihydroxy-3′-geranylchalcone], for which the “enhancing action” value in assay [1] was “no enhancing action for transcriptional activation was found”. The activation at 1 µM in the assay with 3T3-L1 cells (setting [2]) fell in the range of 15 to 30%. Also, the activation at 3 µM in the assay with 3T3-L1 cells (setting [3]) fell in the range of 60 to 100%. Further, the activation at 10 µM in the assay with 3T3-L1 cells (setting [4]) was over 100%.
